# Measurements published in ChEMBL document CHEMBL1155061, “Conjugates of gonadotropin releasing hormone (GnRH) with carminic acid: Synthesis, generation of reactive oxygen species (ROS) and biological evaluation” (Bioorg Med Chem, 2008).
# Active and inactive are the calls of the source. No cut-off for these calls is given here.
# Tests used:
# [1] = Stimulation of ERK phosphorylation in alphaT3-1 cells; type: cell-based
# [2] = tested on: Pituitary gland cell; test: Effect on LH release in rat pituitary cells after 4 hrs; type: functional, cell-based
SMILES,Activity [1],Activity [2]
CC(C)C[C@H](NC(=O)[C@@H](CCCCN)NC(=O)[C@H](Cc1ccc(O)cc1)NC(=O)[C@H](CO)NC(=O)[C@H](Cc1c[nH]c2ccccc12)NC(=O)[C@H](Cc1cnc[nH]1)NC(=O)[C@@H]1CCC(=O)N1)C(=O)N[C@@H](CCCNC(=N)N)C(=O)N1CCC[C@H]1C(=O)NCC(N)=O,Active,Active
Cc1c(C(=O)NCCC(=O)NCCCC[C@@H](NC(=O)[C@H](Cc2ccc(O)cc2)NC(=O)[C@H](CO)NC(=O)[C@H](Cc2c[nH]c3ccccc23)NC(=O)[C@H](Cc2cnc[nH]2)NC(=O)[C@@H]2CCC(=O)N2)C(=O)N[C@@H](CC(C)C)C(=O)N[C@@H](CCCNC(=N)N)C(=O)N2CCC[C@H]2C(=O)NCC(N)=O)c(O)cc2c1C(=O)c1c(O)c([C@H]3O[C@H](CO)[C@@H](O)[C@H](O)[C@H]3O)c(O)c(O)c1C2=O,Active,Active
